Data from paper PMC11062899, “De novo development of small cyclic peptides that are orally bioavailable” (Nature Chemical Biology, 2023).
Several values for one entry are separate records, joined by “and”; a condition that tells them apart may be missing. Equal entries are not always repeated.

Experiments:
human α-thrombin = human α-thrombin (Homo sapiens, UniProt P00734); experiment: Sub-library screen for active and permeable cyclic peptides (PAMPA plus thrombin inhibition); type: biochemical; conditions: crude, slopes normalized to DMSO; for Residual thrombin activity: Top sample: PAMPA acceptor well after 14 h, 5 μM donor; for Residual thrombin activity: Equilibrated sample: donor sample diluted to theoretical equilibrium (1 μM in assay)
Procedure: Linear dithiol peptides were synthesized in fritted 5-ml polypropylene syringes on a MultiPep RSi parallel peptide synthesizer (Intavis) by standard Fmoc-based solid-phase peptide synthesis on cysteamine 2-chlorotrityl resin (Sigma-Aldrich, 8.56000, 1.63 mmol g^−1 loading, 25 μmol scale) as described above with small changes. Amino acids (65 μmol, 2.6 eq.) were activated with HATU (63 μmol, 2.5 eq.) and NMM (145 μmol, 5.8 eq.) in 280 μl of DMF and 5 μl of NMP and let to react with the resin (25 μmol, 1 eq.) for 45 min. Couplings were performed twice for each amino acid. Resin was washed once with 800 μl of DMF, and unreacted amines were capped with 5% acetic anhydride and 6% 2,6-lutidine in 400 μl of DMF for 5 min. The resin was washed six times with 600 μl of DMF, and Fmoc protecting groups were removed by incubating the resin twice with 450 μl of a 20% piperidine solution in DMF for 5 min. The resin was washed six times with 600 μl of DMF before proceeding to the next coupling cycle. After completing the last coupling cycle, the resin was washed six times with […] of DCM. Peptide cleavage and ether precipitation were carried out as described above. After quantification with Ellman’s reagent, 1 μmol of each peptide was transferred in seven replicates to new Nunc 96-well DeepWell polypropylene plates and lyophilized. Peptides were cyclized as described above to afford 20 mM cyclic peptide stock solutions in DMSO containing 160 mM HEPES sodium salt. The amine on cyclic peptides was acylated with 5-chlorothiophene-2-carboxylic acid as follows. A 160 mM solution in 5-chlorothiophene-2-carboxylic acid was prepared in DMSO containing 160 mM HEPES sodium salt, and the acid was activated by mixing in equal volumes with a 160 mM HSTU solution in DMSO. Then, 10 μl of the activated carboxylic acid solutions and the cyclic peptide stocks were placed in Echo Qualified 384-well Low Dead Volume microplates (Labcyte), and 400 nl of cyclic peptide and 400 nl of HSTU-activated 5-chlorothiophene-2-carboxylic acid were transferred combinatorially to 384-well microplates (Greiner, 781076) using the Echo 650 acoustic liquid handler (Labcyte). Plates were centrifuged at 2,000 g for 2 min, and the reaction was allowed to proceed at room temperature for 8 h before addition of 39.2 μl of DMSO with a CERTUS FLEX liquid dispenser (Gyger). A volume of 25 μl of the resulting DMSO solutions was diluted with PBS buffer at pH 7.4 containing 5% DMSO in Nunc 96-well DeepWell polypropylene plates to afford 5 μM solutions of the acylated peptides.
The PAMPA plates were covered with a lid to avoid evaporation and incubated for 14 h at room temperature. Additionally, a diluted donor sample was prepared at the concentration representing theoretical maximum permeability (3 μM). Thereby, 30 μl of the donor sample before incubation was diluted with 20 μl of PBS buffer at pH 7.4 containing 5% DMSO. Volumes of 16 μl of each acceptor well and the diluted donor samples were transferred to a 384-well microplate (Greiner, 781076), and thrombin activity was measured as follows. Human α-thrombin (16 μl, 6 nM, Molecular Innovations) in assay buffer was dispensed into each well using a CERTUS FLEX liquid dispenser (Gyger), and plates were incubated at room temperature for 10 min. Then, 16 μl of a 150 μM fluorogenic thrombin substrate solution (Z-Gly-Gly-Arg-AMC, Bachem) in assay buffer containing 1% DMSO was added to each well, and thrombin inhibition was determined by measuring the fluorescent gain over time. Fluorescence intensity was measured on a Tecan Infinite M200 Pro microplate reader for 30 min at 25 °C with a fluorescent readout every 3 min (excitation: 360 nm, emission: 465 nm). Protease inhibition was calculated by comparing the enzymatic activity to a control without cyclic peptide.

[1] = Metabolic stability in rat liver microsomes (RLMs); conditions: for TIC value at 0 min: 0 min incubation, Ox (+16)/(+32), deMe (-14)/(-28) = mass adducts (metabolites); for TIC value at 0 min / TIC value at 5 min / TIC value at 15 min / TIC value at 30 min / TIC value at 60 min: LCMS TIC, individual replicates R1-R3, protein 0.5 mg/ml; for TIC value at 5 min: 5 min incubation; for TIC value at 15 min: 15 min incubation; for TIC value at 30 min: 30 min incubation; for TIC value at 60 min: 60 min incubation; for half-life / microsomal CLint: rat, microsomes
[2] = Half Life Mean, rat liver microsomes, mean of R1-R3
[3] = Half Life, rat liver microsomes, individual replicates R1-R3
[4] = RLM CL Mean, rat liver microsomes, mean of R1-R3
[5] = RLM CL, rat liver microsomes, individual replicates R1-R3, incubation volume 400 ul, protein 0.5 mg/ml
[6] = Metabolic stability: RLM CL (ul/min/mg), RLMs, mean and SD, three measurements
[7] = Half-life (T1/2) in RLMs, 10 μM peptide, 37 °C, mean and s.d. of three measurements
[8] = Metabolic stability: Half life T1/2 (min), RLMs, mean and SD, three measurements

| Compound | Residual thrombin activity: Top sample (human α-thrombin) | Residual thrombin activity: Equilibrated sample (human α-thrombin) | TIC value at 0 min ([1]; rat liver microsomes) | TIC value at 5 min ([1]; rat liver microsomes) | TIC value at 15 min ([1]; rat liver microsomes) | TIC value at 30 min ([1]; rat liver microsomes) | TIC value at 60 min ([1]; rat liver microsomes) | half-life [1, 2] | half-life [1, 3] | microsomal CLint [1, 4] | microsomal CLint [1, 5] | microsomal CLint [1, 6] | half-life [1, 7] | half-life [1, 8] |
| --- | --- | --- | --- | --- | --- | --- | --- | --- | --- | --- | --- | --- | --- | --- |
| O=C1C[C@H]2CCCN2C(=O)[C@H](Cc2ccccc2)NC(=O)[C@@H](NC(=O)c2ccc(Cl)s2)CSCCS(=O)(=O)CCSCCN1 [C1-X5-L2] | 88.1 | 37.4 | – | – | – | – | – | – | – | – | – | – | – | – |
| O=C1C[C@H]2CCCN2C(=O)[C@H](Cc2ccccc2)NC(=O)[C@@H](NC(=O)c2ccc(Cl)s2)CSCc2ccc(cc2)CSCCN1 [C1-X5-L3] | 88.7 | 68.9 | – | – | – | – | – | – | – | – | – | – | – | – |
| O=C1C[C@@H]2CCCN2C(=O)[C@@H](NC(=O)c2cccc(Cl)c2)CSCc2cccc(n2)CSCCNC(=O)[C@H](Cc2c[nH]c3ccccc23)N1 [compound 7] | – | – | 3550654 (2×) and 4325681 | 3349041 and 3673040 and 3817703 | 2080247 and 3097312 and 2624551 | 1705819 and 1909847 and 1817380 | 1049135 and 1421730 and 1465716 | 31.3 min | 28.4 min | 45.2 µL/min/mg | 48.8 µL/min/mg | 45 ± 6 µL/min/mg | 31 ± 5 min | 31 ± 5 min |
| CN1CCC(=O)NCCSCC(=O)CSC[C@H](NC(=O)c2cccc(C(F)(F)F)c2)C(=O)N2CCC[C@@H](C2)C1=O [compound 8] | – | – | 6751463 (2×) and 7547988 | 6145465 and 6292775 and 6289651 | 3895721 and 6301539 and 5568669 | 3369766 and 4709220 and 3894141 | 1916782 and 2986882 and 2251799 | 37.4 min | 28.1 min | 39.6 µL/min/mg | 49.2 µL/min/mg | 40 ± 9 µL/min/mg | 37 ± 10 min | 37 ± 10 min |
| Cn1nccc1C(=O)N1CCC2(CC1)NC(=O)[C@H](CC1CCCCC1)NC(=O)CCSCc1cccc(n1)CSCCNC2=O [compound 9] | – | – | 15547492 (2×) and 14631455 | 12759369 and 8856874 and 13246148 | 8028101 and 6898172 and 9892349 | 4900968 and 4228902 and 5914854 | 1719220 and 1798352 and 2620253 | 22.3 min | 17.3 min | 64.1 µL/min/mg | 80.2 µL/min/mg | 64 ± 11 µL/min/mg | 22 ± 4 min | 22 ± 4 min |
| O=C1CC2CCN(CC2)C(=O)[C@@H](NC(=O)c2cc(F)cc(F)c2)CSCc2ccc(cc2)CSCCNC(=O)[C@H](Cc2ccccc2)N1 [peptide 1] | – | – | 4586491 (2×) and 3645847 | 3654952 and 3734486 and 3061802 | 1752251 and 2543021 and 981764 | 740144 and 790714 and 195334 | 105910 and 231909 and 39522 | 11.5 min | 11.6 min | 123 µL/min/mg | 119 µL/min/mg | 123 ± 18 µL/min/mg | 11 min | 11.5 ± 1.7 min |
| COc1ccc(CC(=O)N[C@H]2Cc3ccc(cc3)CNC(=O)c3cccc(c3)CNC(=O)CCSCc3ccc(cc3)CSCCNC2=O)cc1OC [peptide 3] | – | – | 1629049 (2×) and 1656894 | 1396633 and 1109599 and 1416564 | 688706 and 808072 and 696583 | 432016 and 448206 and 497739 | 192689 and 235300 and 132050 | 16.9 min | 15 min | 83.8 µL/min/mg | 92.5 µL/min/mg | 84 ± 11 µL/min/mg | 16.9 ± 2.5 min | 16.9 ± 2.5 min |
| NC(=O)NCCC[C@@H]1NC(=O)C2CN(CCN2C(=O)C2CCCN2S(=O)(=O)c2ccc(F)cc2)C(=O)CCSC/C=C/CSCCNC1=O (stereo partly shown) [peptide 4] | – | – | 2209118 (2×) and 1061770 | 1524575 and 1610332 and 921634 | 1519207 and 1327718 and 738514 | 1146033 and 1076120 and 486997 | 743609 and 590507 and 376829 | 34.6 min | 31.2 min | 40.6 µL/min/mg | 44.4 µL/min/mg | 41 ± 5 µL/min/mg | 34 ± 4 min | 35 ± 4 min |

The remaining lines, values ahead:

| Residual thrombin activity: Top sample (human α-thrombin) | Residual thrombin activity: Equilibrated sample (human α-thrombin) | TIC value at 0 min ([1]; rat liver microsomes) | TIC value at 5 min ([1]; rat liver microsomes) | TIC value at 15 min ([1]; rat liver microsomes) | TIC value at 30 min ([1]; rat liver microsomes) | TIC value at 60 min ([1]; rat liver microsomes) | half-life [1, 2] | half-life [1, 3] | microsomal CLint [1, 4] | microsomal CLint [1, 5] | microsomal CLint [1, 6] | half-life [1, 7] | half-life [1, 8] | Compound |
| --- | --- | --- | --- | --- | --- | --- | --- | --- | --- | --- | --- | --- | --- | --- |
| 77.6 | 68.5 | – | – | – | – | – | – | – | – | – | – | – | – | O=C1C[C@H]2CCCN2C(=O)[C@H](Cc2ccccc2)NC(=O)[C@@H](NC(=O)c2ccc(Cl)s2)CSCc2cccc(n2)CSCCN1 [C1-X5-L1] |
| – | – | 4100940 (2×) and 3001933 | 3877569 and 3883518 and 2646636 | 3731666 and 3678603 and 2895431 | 3163475 and 3179511 and 2181012 | 2955229 and 3322280 and 1801495 | > 60 min | > 60 min | 14.1 µL/min/mg | 12.6 µL/min/mg | – | – | – | O=C(Cc1c[nH]c2ccccc12)N[C@H]1CSCCS(=O)(=O)CCSCCNC(=O)C2(CCCC2)NC(=O)[C@@H]2CCCN2C1=O [compound 5] |
| – | – | 880057 (2×) and 553202 | 821271 and 965964 and 386285 | 765281 and 1161804 and 367708 | 697748 and 898601 and 342582 | 664165 and 808479 and 323125 | – | 50.6 min | 16.6 µL/min/mg | – | 16.6 ± 7.6 µL/min/mg | – | – | O=C1CSCCNC(=O)c2ccc(cc2)CNC(=O)[C@@H](NC(=O)C2CCS(=O)(=O)CC2)CCNC(=O)CCSC1 [compound 6] |
| – | – | 5136707 (2×) and 3317301 | 5335426 and 4509848 and 3329443 | 4513948 and 3668718 and 2626547 | 4035558 and 3666920 and 2228136 | 3223521 and 2515297 and 2382324 | > 60 min | > 60 min | 17.6 µL/min/mg | 15.4 µL/min/mg | 17.6 ± 2.6 µL/min/mg | – | – | CC(C)[C@@H]1NC(=O)CCSCCS(=O)(=O)CCSCCNC(=O)[C@H](CNC(=O)c2ccco2)NC1=O [compound 10] |
| – | – | 4300369 (2×) and 5050392 | 4094044 and 4040957 and 4614305 | 4065591 and 3605857 and 4671032 | 3778445 and 3534653 and 4132452 | 3236121 and 3689440 and 3984891 | > 60 min | > 60 min | 10.7 µL/min/mg | 9.21 µL/min/mg | 10.7 ± 1.9 µL/min/mg | – | – | O=C(N[C@H]1CSC/C=C\CSCCNC(=O)C2(CC2)CNC(=O)[C@H](CO)NC1=O)c1cccnc1 [peptide 2] |
